Measurements published in patent US10450317B2, “Notch pathway signaling inhibitor compounds” (Eli Lilly and Company, priority 2015, dated 2019).

Legend:
mAtoh1 = experiment: Induction of mAtoh1 expression in otic spheres (qRT-PCR); assay type: cell-based, mice; details: 7 days, fold-induction relative to DMSO control, ± SEM
Description: Generally, organ of Corti cell isolation is carried out on Day 0, largely by the method in Oshima et al., Methods Mol Biol., 2009; 493: 141-162. Cell culture and propagation are carried out for 3-4 days. Cell plating and test compound treatment takes place on Day 3 or 4. Attachment and differentiation is allowed to take place over the next 7 days. On Days 10 or 11, cell lysis and RNA isolation is carried out. TagMan qRT-PCR is carried out on Day 12 and the results analyzed on Days 13-15 for Atoh1 and Tbp1 expression.
Surrounding tissue from the petrous portion of the temporal bone are removed from 1 to 4 day-old postnatal mice (transgenic strain: mAtoh1-driven nGFP; Lumpkin E A, et al., Gene Expr Patterns, 2003; (36): 389-95 of both sexes. The conch shaped cochlea is separated from the vestibular system using forceps. At this stage of development, the bony labyrinth is not completely calcified and is easily dissected using forceps. Carefully open the bony labyrinth of the cochlea and remove the spiral ligament and attached organ of Corti coiled together along the spiral of the modiolus by unwinding apically from the modiolus. Starting at the base, separate the spiral ligament from the organ of Corti using fine forceps.
Transfer the dissected organ of Corti (OC) into individual 1.5 ml tubes filled with 850 ice cold HBSS. Transfer up to 12 OC tissues into the same tube, Quick-spin down OC tissues and remove the HBSS. Disassociate the cells by adding 100 μl pre-warmed TrypLE™ Select (Life Technologies) and incubate at 37° C. for 13 min. Quick spin down dissociated OC tissues. Remove TrypLE™ Select. Add 100 μl of Medium A (DMEM/F12, N2 supplement (LifeTechnologies), B27 supplement (LifeTechnologies), ampicillin (50 μg/ml) and Fungizone (LifeTechnologies), EGF (20 ng/ml), bFGF (10 ng/ml), IGF-1 50 ng/ml), and heparan sulfate (50 ng/ml)). The dissected and digested tissue is then triturated with a P200 pipette tip. Remove any cell aggregates and debris; transfer the cell suspension and wash through a pre-wetted 70 μm cell strainer to pool the cell suspension in a single fresh culture tube. Rinse dissociation tubes and the cell strainer with sufficient Medium A and pool with the cell suspension. Count cell density with hemocytometer or Countess® (Life Technologies). Add fresh Medium A to cell suspension to achieve a final plating density of 1.0E5 cell/ml and plate into ultra-low attachment cultureware, T-75 (Greiner).
The dissociated, single cells are cultured in an ultra-low attachment cultureware, (Greiner) in Medium A for 3 to 4 days in a 5% CO2 humidified incubator at 37° C. to obtain clonally grown spheres, termed first generation spheres, from the floating cells. If cells stick to the non-adherent dishes during the culture period they can be dislodged by gentle mixing.
After culturing the spheres for 3-4 days, visually count the spheres by microscope to standardize the seeding density of otic spheres per ml for this step. Collect the cells by centrifugation and re-suspend spheres in Basic Medium at a concentration of approximately 2000 spheres per ml. Seed the spheres in a volume of 150 μl per well of a cell culture-treated 96 well plate to obtain approximately 300 spheres per well. Treat the spheres with experimental agents in quadruplicate at a final volume of 200 μl in Basic Medium (DMEM/F12, N2 supplement (LifeTechnologies) B27 supplement (LifeTechnologies), ampicillin (50 μg/ml) and Fungizone (LifeTechnologies). Culture the treated spheres for 7 days in a humidified temperature controlled incubator at 5% CO2, 37° C. Remove medium and proceed with RNA extraction.
Add buffer RLT plus (Qiagen) supplemented with 1% Beta-mercaptoethanol, 175 μl per well. Add 2.5 μl of 4 ng/μl of RNA carrier (RNeasy® Plus Micro Kit; Qiagen) diluted in Buffer RLT Plus into each well before RNA extraction. Total RNA is extracted using the RNeasy® Plus Micro Kit (Qiagen) according to the manufacturer's instructions. […]

[1] = tested on: hair cell generation markers Atoh1, Pou4f3, Myo7a in organ of Corti explants; experiment: Organ of Corti explant assay, hair cell marker gene expression by qRT-PCR; assay type: cell-based, mice; details: 1 μM, fold-induction relative to negative control, ± SEM
Description: Generally, organ of Corti organotypic explant culture is carried out on Day 0 according to the method described in Parker et al., Journal of Visualized Experiments, 2010, (36), e1685. Explant culture is carried out for 4-7 days at which point the culture is either prepared for cellular lysis for qRT-PCR, or tissue fixation for immunohistochemistry.
The bulla and surrounding tissue from the petrous portion of the temporal bone are removed from 1 to 4 day-old postnatal mice (transgenic strain: Atoh1-driven nGFP; Lumpkin E A, et al., Gene Expr Patterns, 2003, (36):389-95) of both sexes. Organs of Corti are dissected in Hanks solution, the spiral ligament is removed and the explants are placed on cover slips coated with poly-L-ornithine (0.01%, Sigma) and laminin ([…], Becton Dickinson) to obtain a preparation with a flat cochlear surface. Each cochlear explant is then placed in a single well of a 24 well plate (Falcon) and cultured in DMEM (Invitrogen) with 5% fetal bovine serum, 5% horse serum, and penicillin-streptomycin (LifeTechnologies). Experimental compounds are added with medium on Day 0 and replaced every 2-3 days. All cultures are maintained in a 5% CO2 humidified incubator at 37° C.
RNA Extraction is carried out by lysing the explant tissue with 350 μl RLT Plus buffer (Qiagen) per well, and total RNA is purified by RNeasy® Plus Mini Kit (Qiagen). cDNA synthesis is carried out with the SuperScript® III First-Strand Synthesis System (LifeTechnologies) using random hexamers. To quantify the induction of hair cell marker expression, qPCR is performed with TaqMan Gene Expression Master Mix (LifeTechnologies, 4369016) and probes to detect genes of interest (e.g. […]; Assay ID Mm00476035_s1, Pou4f3; Assay ID Mm04213795_s1 and Myo7a; Assay ID Mm01274015_m1, LifeTechnologies) and an endogenous control gene, Tbp (Assay ID Mm00446971_m1, LifeTechnologies). Relative gene expression between treatment groups is analyzed using the ΔΔCT method and replicate measurements are averaged. Experiments are carried out in triplicate, at a minimum, and reported as a grand mean.
Data (±SEM) represent the fold-induction in gene expression relative to negative control-treated samples.

COc1ccc2c(c1)N1CCC(C)(C)C1=CC(=O)C2NC(=O)[C@H](C)NC(=O)CCC(F)(F)F (single isomer, unassigned) [Compound 1, Isomer 2]
RQ at 10 nM (Atoh1 expression) (mAtoh1): 1.43 ± 0.17 | RQ at 100 nM (Atoh1 expression) (mAtoh1): 1.76 ± 0.17 | RQ at 1 μM (Atoh1 expression) (mAtoh1): 1.64 ± 0.13 | RQ of Atoh1 expression [1]: 3.72 ± 0.54 | RQ of Myo7a expression [1]: 1.73 ± 0.33 | RQ of Pou4f3 expression [1]: 2.04 ± 0.35

C[C@H](NC(=O)CCC(F)(F)F)C(=O)NC1C(=O)C=C2N(CCC2(C)C)c2ncccc21 (single isomer, unassigned) [Compound 2, Isomer 2]
RQ at 10 nM (Atoh1 expression) (mAtoh1): 1.14 ± 0.07 | RQ at 100 nM (Atoh1 expression) (mAtoh1): 1.21 ± 0.13 | RQ at 1 μM (Atoh1 expression) (mAtoh1): 1.57 ± 0.11 | RQ of Atoh1 expression [1]: 3.10 ± 0.69 | RQ of Myo7a expression [1]: 1.49 ± 0.22 | RQ of Pou4f3 expression [1]: 1.65 ± 0.25
